Experimental data published in PubChem BioAssay (NCI).
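All cell lines were grown in 96-well plates and treated with compound for 48 hours. At the GI50, growth is halved. The concentration for full growth arrest is given as TGI.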

What was measured:
Test in all cases: growth of human tumour cells (NCI), 48 h
HCT-116 colon = system: HCT-116 colon
M14 melanoma = system: M14 melanoma
MALME-3M melanoma = system: MALME-3M melanoma
NCI-H23 lung = system: NCI-H23 lung
OVCAR-3 ovarian = system: OVCAR-3 ovarian
SN12C renal = system: SN12C renal
SW-620 colon = system: SW-620 colon
U251 CNS = system: U251 CNS
UACC-257 melanoma = system: UACC-257 melanoma
UO-31 renal = system: UO-31 renal

Compound | GI50 (HCT-116 colon) [µM] | TGI (HCT-116 colon) [µM] | GI50 (M14 melanoma) [µM] | TGI (M14 melanoma) [µM] | GI50 (MALME-3M melanoma) [µM] | TGI (MALME-3M melanoma) [µM] | GI50 (NCI-H23 lung) [µM] | TGI (NCI-H23 lung) [µM] | GI50 (OVCAR-3 ovarian) [µM] | TGI (OVCAR-3 ovarian) [µM] | GI50 (SN12C renal) [µM] | TGI (SN12C renal) [µM] | GI50 (SW-620 colon) [µM] | TGI (SW-620 colon) [µM] | GI50 (U251 CNS) [µM] | TGI (U251 CNS) [µM] | GI50 (UACC-257 melanoma) [µM] | TGI (UACC-257 melanoma) [µM] | GI50 (UO-31 renal) [µM] | TGI (UO-31 renal) [µM]
COc1cc(-c2cn(-c3ccc(Cl)cc3)c(=O)n2-c2ccccc2)cc(OC)c1OC | 45.8 | > 100 | > 100 | > 100 | > 49.8 | > 94.9 | > 100 | > 100 | > 100 | > 100 | > 100 | > 100 | > 100 | > 100 | 33.7 | > 100 | > 82.6 | > 100 | 89.3 | > 100
Nc1cc2c3c(cccc3c1)C(=O)N(CCN1CCN(CCN3C(=O)c4cccc5cc(N)cc(c45)C3=O)CC1)C2=O |  | > 100 |  | > 100 |  | > 100 |  | > 100 |  | > 100 |  | > 100 |  | > 100 |  | > 100 |  | > 100 |  | > 100
Oc1ccc(-c2nc(-c3ccc(F)cc3)c(-c3ccncc3)[nH]2)cc1 | 17.4 | 53 | 4.02 | 20.3 | 2.45 | 9.13 | 36.2 | > 100 | 15 | 86.9 | 14.9 | > 100 | 32.1 | > 100 | 25.5 | > 100 | 13.9 | 63.1 | 3.44 | 20.2
CCOC(=O)/C(=C/c1c(-c2ccccc2)[nH]c2ccccc12)C(=O)c1ccc(Cl)cc1 | 2.76 | > 100 | 3.07 | > 100 | 3.09 | > 100 | 3.47 | > 100 | 3.35 | > 100 | 3.35 | > 100 | 4.53 | > 100 | 3.85 | > 100 | 6.49 | > 100 | 3.86 | > 100
COc1ccc(C(NCCNC(c2ccc(OC)c(OC)c2)c2cc3c(cc2O)OCO3)c2cc3c(cc2O)OCO3)cc1OC (stereo not given) |  | 6.05 |  | 8.39 |  | 15.4 |  | 9.3 |  | 6.82 |  | 4.55 |  | 3.86 |  | 7.03 |  | 9.97 |  | 8.27
COc1cc(C2c3cc4c(cc3[C@@H](OCCN)[C@H]3COC(=O)C23)OCO4)cc(OC)c1O (stereo not given in full) |  | 4.89 |  | 3.34 |  | 1.59 |  | 0.731 |  | 3.06 |  | 0.562 |  | 2.45 |  | 0.401 |  | 18.2 |  | 13.6
CC(=O)OCC1OC(n2cnc3c(I)nc(I)nc32)C(OC(C)=O)C1OC(C)=O (stereo not given) |  | 16.7 |  | 31.6 |  | 33.5 |  | 16.7 |  | 20.1 |  | 26.7 |  | 28.4 |  | 22.9 |  | 27.5 |  | 31.5
c1ccc(CNc2nc(Nc3ccc(-c4nc5ccccc5[nH]4)cc3)c3cn[nH]c3n2)cc1 | 1.74 | 3.64 | 1.72 | 3.81 | 1.81 | 3.8 | 2.28 | 6.13 | 1.61 | 3.3 | 2.75 | 7.37 | 2.69 | 6.62 | 2.27 | 5.85 | 1.61 | 3.4 | 2.02 | 6.02
Cn1c(=O)c2c(nc3n2C(CCl)CO3)n(C)c1=O (stereo not given) |  | > 100 |  | > 100 |  | > 100 |  | > 100 |  | > 100 |  | > 100 |  | > 100 |  | > 100 |  | > 100 |  | > 100
COc1cc2c(c(Br)c1N)-c1cc(Br)c(N)cc1C2=O | 3.49 | > 100 | 50.9 | > 100 | > 100 | > 100 | 4.3 | > 100 | > 100 | > 100 | 6.33 | > 100 | > 100 | > 100 | 4.58 | > 100 | > 100 | > 100 | > 100 | > 100
Cc1ccc(C)c(NC(=O)CCC(=O)CC(=O)C(C)(C)C)c1 |  | > 100 |  | > 100 |  | > 100 |  | > 100 |  | > 100 |  | > 100 |  | > 100 |  | > 100 |  | > 100 |  | > 100
O=C(Nc1ccc(Cl)cc1)C(=O)C1=C(O)c2ccccc2OC1 |  | > 100 |  | > 100 |  | > 100 |  | > 100 |  | > 100 |  | > 100 |  | > 100 |  | > 100 |  | > 100 |  | > 100
